Measured values taken from article PMC9267955, “Antidiabetic, Antiglycation, and Antioxidant Activities of Ethanolic Seed Extract of Passiflora edulis and Piceatannol In Vitro” (Molecules, 2022).
Marks after values point to notes of the source that are not given here.

What was measured:
[1] = test system: high-fat diet-fed C57BL/6J mice; set-up: method as in PMID 25832644; details: PIC supplementation; cited from earlier work
[2] = DPPH radical scavenging assay
Experimental: After incubation in the dark for 30 min, the absorbance was read at 516 nm, using a UV–Vis spectrophotometer (Agilent Technologies, Santa Clara, CA, USA). Results were expressed as the half-maximal inhibitory concentration (IC50) in μg/mL.

[3] = test system: BSA/MGO fluorescent AGEs; test: Inhibition of AGE formation, intermediate stage of glycation (BSA/MGO); assay type: biochemical, bovine; details: BSA/MGO model
Experimental: (§1) The BSA-MGO assay was based on those described before, with some modifications. This experiment is based on the formation of fluorescent AGEs from the middle stage of protein glycation. MGO (1.5 mM) and BSA (3 mg/mL) were dissolved separately in 0.05 M phosphate buffer (pH 7.4) containing NaCl (100 mM) and NaN3 (0.02% w/v). Then, 300 μL of MGO was incubated with samples at different concentrations (dissolved in a buffer containing 60% ethanol) for an hour at 37 °C, in the dark, with constant stirring. After BSA (3 mg/mL) was added to the reaction mixture and incubation time was extended to 48 h at 37 °C in darkness. The rest of the procedure was the same as that for the BSA-glucose/fructose model that is described above. The percentage of the AGE inhibition and IC50 was calculated as described in Section 3.3.1.

[4] = test system: BEAS-2B cells; test: Intracellular ROS level (DCFH-DA) after NNKOAc; assay type: cell-based, human
Experimental: The generation of intracellular ROS in BEAS-2B, AML-12, and MCF-10A cells after treatments was measured as described previously. Briefly, DCFH-DA dye was readily taken up by cells and is subsequently hydrolyzed to DCFH, which can be oxidized to a measurable fluorescent product dichlorofluorescein (DCF). […] Cells with DMSO media (0.5%) served as the vehicle control. After treatments, DCFH-DA was added to the cell culture plates at a final concentration of 5 μM followed by 40 min incubation at dark. The fluorescence […] was then measured at an excitation and emission wavelength of 485 nm and 535 nm, using a microplate reader (Infinite® 200 PRO, TECAN, Männedorf, Switzerland).
BEAS-2B, MCF10-A, and AML-12, cells were purchased from the American Tissue Type Culture Collection (ATCC; CRL-9609, CRL-10317, and CRL-2254) and cultured with a specific medium. BEAS-2B cells were cultured with LHC-9 media at 37 °C in an incubator with 5% CO2. Culture flasks (polystyrene T75) were pre-coated with a mixture of 0.01 mg/mL fibronectin, 0.03 mg/mL bovine collagen type I, and 0.01 mg/mL bovine serum albumin were dissolved in LHC-9 medium overnight. […]

[5] = test system: amyloid fibrils of glycated BSA (BSA/MGO); test: Inhibition of amyloid fibril formation, ThT assay (BSA/MGO); assay type: biochemical, bovine; details: highest obtained, PESE 200, PIC 200, AMG 100 µg/mL
Experimental: as §1
The fibrillar state of modified BSA was determined with ThT as previously described. ThT is a probe that binds directly to amyloid fibrils to give a strong fluorescent signal and thus can be used to quantify β-amyloid due to protein glycation. Basically, 30 μL of glycated protein (approx. 1 mg/mL), obtained as described previously, was mixed with 100 μL ThT reagent (10 μM ThT in 100 mM phosphate buffer, pH 7.0), and fluorescence was collected at excitation/emission wavelengths of 450/490 nm in a microplate reader (Infinite® 200 PRO, TECAN, Männedorf, Switzerland). […]

[6] = test system: db/db mice; set-up: method as in PMID 25832644; details: PIC supplementation; cited from earlier work
[7] = test system: cultured myotubes; set-up: method as in PMID 25832644; details: in the absence of insulin; cited from earlier work
[8] = target: T1, alpha-amylase from porcine pancreas (Sus scrofa, UniProt P00690); test: Alpha-amylase inhibition assay; assay type: biochemical; details: pancreatic alpha-amylase; mean ± SD, triplicates
T1 construct: alpha-amylase from porcine pancreas; purchased Sigma-Aldrich (Oakville, ON, Canada); host or cells: porcine pancreas
T1 sequence (P00690 16-511): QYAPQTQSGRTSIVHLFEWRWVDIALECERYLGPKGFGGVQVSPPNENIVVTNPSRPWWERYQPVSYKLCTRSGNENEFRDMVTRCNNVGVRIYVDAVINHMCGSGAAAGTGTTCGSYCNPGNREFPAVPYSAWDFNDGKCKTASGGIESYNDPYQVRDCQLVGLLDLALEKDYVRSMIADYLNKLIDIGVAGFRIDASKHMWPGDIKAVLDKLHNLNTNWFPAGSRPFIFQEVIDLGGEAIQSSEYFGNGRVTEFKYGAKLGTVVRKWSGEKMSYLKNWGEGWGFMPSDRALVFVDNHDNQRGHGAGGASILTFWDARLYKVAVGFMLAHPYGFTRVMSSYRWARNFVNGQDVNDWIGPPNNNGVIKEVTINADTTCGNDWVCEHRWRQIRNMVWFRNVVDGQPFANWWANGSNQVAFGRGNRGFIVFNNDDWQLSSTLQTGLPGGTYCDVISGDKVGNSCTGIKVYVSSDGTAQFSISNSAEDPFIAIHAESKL
Experimental: Plant extract screening for alpha-amylase inhibition was conducted using the previously described method [46], with some modifications. Except as otherwise indicated, solutions were prepared in 0.01 M potassium phosphate buffer containing sodium chloride (60 mM) and sodium azide (0.02% w/v), pH 6.8. […] After 10 min of incubation at 37 °C, 20 µL of the substrate 2-chloro-4-nitrophenyl-α-D-maltotrioside (5 mM) was added. The mixture was then incubated for 30 min at 37 °C for the reaction to take place. The reaction was terminated by adding 240 µL of trisodium phosphate solution of pH 11 (1% w/v) to stop enzyme activity. […] The positive control was a mixture of enzyme and substrate without inhibitors. Sample control containing sample and buffer was used to eliminate color interference. Buffer was used as blank. The percentage of the alpha-amylase inhibition was calculated as I% = [(Abs0 − Abs1)/Abs0] × 100, where A0 is the absorbance of the positive control subtracted from the blank, Abs 1 is the absorbance in the presence of the extract subtracted from sample control. The IC50 (half-maximal inhibitory concentration) was calculated graphically, using an analytical curve by plotting the concentration versus the inhibition percentage (I%).

Compound: Oc1cc(O)cc(/C=C/c2ccc(O)c(O)c2)c1 [PIC, 3,3′,4′,5-trans-tetrahydroxystilbene]
- Fasting blood glucose, high-fat diet-fed C57BL/6J mice [1]: reduced fasting blood glucose
- DPPH• IC50 ([2]; 30 min): 6.3 ± 1.3 µg/mL
- IC50 ([2]; data in parenthesis are in μM): 25.8 µM
- Antiglycation IC50, MGO [3]: 67.4 ± 4.6 ^b μg/mL
- Protection from oxidative stress (ROS) caused by the carcinogen, BEAS-2B ([4]; 50 µg/mL, 3 h pretreatment, NNKOAc 100 µM): able to protect
- Protection of cultured human cells from oxidative stress caused by NNKOAc ([4]; NNKOAc at 100 µM, abstract, cell line and concentration not specified): capable of protecting
- Inhibition of Amyloid Fibrils (%), MGO [5]: 100 ± 3.8 ^a %
- Fasting blood glucose, db/db mice [6]: reduced fasting blood glucose
- Glucose uptake in cultured myotubes [7]: promoted glucose uptake
- IC50 [8]: 350 µM
